Source: US8906344B2, “F-18 radiolabeled compounds for diagnosing and monitoring kidney function” (Kasina Laila Innova Pharmaceuticals Private Limited, priority 2012, dated 2014)
Read-outs that look alike come from different tables or passages of the source.

Legend:
[1] = Limited organ bio-distribution in mice; format: in vivo, Female Swiss Albino mice; details: for Kidney (% ID) / Small Intestine (% ID) / Urine (% ID) / Liver (% ID): n=4
Method: Female Swiss Albino mice were randomized (4 animals per time-point) according to body weight on the day prior to the experimental date. Some of the selected compounds of formula (I) are evaluated for a limited bio-distribution study involving five selected organs of interest such as Blood, Liver, Small Intestines, Kidneys and Urine. Each compound was dissolved in a vehicle comprising of 10% N-methyl-2-pyrrolidone in sterile water to achieve a final strength of 1 mg/mL. The mixture was sonicated for 2 min to yield a clear solution. Compound was administered to mice via tail vein at a dose volume of 2 mL/kg in order to obtain a final dose of 2 mg/kg. […] Blood was collected from the retro-orbital plexus in K2-EDTA containing tubes, centrifuged, plasma harvested and stored at −80° C. until further analysis. Liver, kidneys (right and left), and small intestine were harvested, weighted, and stored at −80° C. The small intestine was flushed with normal saline prior to storage. Urine was collected directly from the bladder and stored at −80° C.
Liver, kidneys, and small intestine were homogenized in water at 20% w/v. The respective homogenates were mixed thoroughly and stored at −80° C. until further processing. An aliquot of 100 μL of plasma/tissue homogenate was transferred to a 1.5 mL micro centrifuge tube. Twenty five microliters of compound (5 μg/mL), hundred microliters of 1% formic acid and 750 μL of tert-butyl methyl ether were added and sample was vortexed for 3 min. After centrifugation of the sample at 12,000 rpm at 4° C. for 5 min, supernatant was removed and evaporated under nitrogen stream at 40° C. for an additional 10 min (nitrogen evaporator, Caliper Instruments USA). The residue was reconstituted with 125 μL of solution (acetonitrile:water 1:1) and 10 μL was injected into the chromatographic system. On similar lines, an aliquot of 50 μL of urine was transferred to a 1.5 mL micro centrifuge tube. One hundred and fifty microliters of compound (5 μg/mL), was added and sample was vortexed for 3 min. After centrifugation of the sample at 12,000 rpm at 4° C. for 5 min, supernatant was removed and 10 μL was subjected to LC-MS/MS (Thermo Quantum Ultra) for the analysis.
Analyte concentrations were determined by evaluating the peak area ratio of drug to internal standard against a standard curve. The standard curve was prepared by plotting the relationship between peak area ratio of analyte to internal standard against concentration of standard CC samples by using linear regression y=ax+b and putting the 1/x^2 as weighting factor.
Data were expressed as ng/g for liver, kidneys, and small intestine. Percent compound in tissues was calculated based on the absolute dose administered (mg/kg). Plasma concentrations as a percent of administered dose were extrapolated assuming a total blood volume of 6% body weight and a 60% yield (plasma from blood). Compound concentrations in urine were expressed as μg per total volume collected.

[2] = Plasma clearance in rats, single injection clearance method; details: for Plasma clearance: normal rats; for Clearance: rats, 2 mg/kg i.v. bolus tail vein, n=3, LC-MS/MS, noncompartmental
Method: The experiment for each compound was performed in isoflurane-anesthetized male SD rats (body weight 180-260 gm; n=3). Solution formulation of each compound was prepared in sterile water for injection with strength of 1 mg/mL. All solution formulations were prepared freshly prior to dosing. The dose volume for i.v bolus injection was 2 mL/kg. Three rats for each compound were administered intravenously (i.v.) bolus injection in tail vein at 2 mg/kg body weight. Blood samples were obtained at pre-dose (0 hr), 0.08, 0.17, 0.25, 0.5, 0.75, 1 and 2 hr post dosing. The blood samples (˜120 μL) were taken from the retro-orbital plexus into labelled micro centrifuge tubes, containing 10 μL of 2% w/v K2EDTA solution, as an anticoagulant. […] Bioanalysis of rat plasma samples were analysed with developed method for each analyte using LC-MS/MS (Waters, Xevo TQ-S). The pharmacokinetic parameters such as area under the curve (AUC), elimination half-life (T1/2), volume of distribution (Vss) and clearance (CL) were estimated using a noncompartmental model in Phoenix WinNonlin software, version 6.3.

[3] = literature, cited from earlier work; for Plasma clearance: known renal diagnostic agents
[4] = 15 min after injection, 2 mg/kg tail vein
[5] = 15 min after injection, 2 mg/kg tail vein, n=4, plasma extrapolated assuming blood volume 6% body weight, 60% yield
[6] = 60 min after injection, n=4, plasma extrapolated to blood

| Kidney (% ID) [1, 4] [% ID] | Small Intestine (% ID) [1, 4] [% ID] | Urine (% ID) [1, 4] [% ID] | Kidney (% ID) ([1]; 60 min after injection) | Small Intestine (% ID) ([1]; 60 min after injection) | Plasma clearance [2] [ml/min/100 g] | Clearance [2] [mL/min/100 g] | retention in liver, small intestine and kidney (in words) ([1]; 15 min after injection) | Liver (% ID) [1, 4] [% ID] | Liver (% ID) ([1]; 60 min after injection) | Blood (% ID) [1, 6] [% ID] | Compound | Blood (% ID) [1, 5] [% ID] | Plasma clearance [3] [ml/min/100 g] | clearance as percent of the clearance of 131I-OIH [3] |
| --- | --- | --- | --- | --- | --- | --- | --- | --- | --- | --- | --- | --- | --- | --- |
| 0.13 ± 0.01 | 0.04 ± 0.02 | 72.73 ± 1.91 | 0.00 ± 0.00 | 0.00 ± 0.00 | 2.78±0.19 | 2.78 ± 0.19 | minimum retention | 0.08 ± 0.04 | 0.00 ± 0.00 | 0.02 ± 0.02 | Nc1cc(C(=O)NCC(=O)O)ccc1[18F] [Compound 3, 2-(3-Amino-4-(18)fluorobenzamido)acetic acid] | 0.83 ± 0.02 | – | – |
| 0.47 ± 0.20 | 0.11 ± 0.08 | 78.21 ± 4.79 | 0.01 ± 0.01 | 0.01 ± 0.01 | 3.48±0.63 | 3.48 ± 0.63 | minimum retention | 0.08 ± 0.02 | 0.02 ± 0.02 | 0.02 ± 0.01 | Nc1ccc(C(=O)NCC(=O)O)cc1[19F] [Compound 6, 2-(4-Amino-3-(18)fluorobenzamido)acetic acid] | 0.68 ± 0.38 | – | – |
| 0.09 ± 0.04 | 0.01 ± 0.01 | 83.59 ± 8.82 | 0.00 ± 0.00 | 0.00 ± 0.00 | 3.25±0.13 | 3.25 ± 0.13 | minimum retention | 0.21 ± 0.05 | 0.05 ± 0.07 | 0.01 ± 0.00 | C[C@H](NC(=O)c1ccc(N)cc1[18F])C(=O)O [Compound 10, (S)-2-(4-Amino-2-(18)fluorobenzamido)propanoic acid] | 0.50 ± 0.27 | – | – |
| 0.06 ± 0.02 | 0.09 ± 0.05 | 82.31 ± 9.60 | 0.01 ± 0.02 | 0.00 ± 0.00 | 3.36±0.41 | 3.36 ± 0.41 | minimum retention | 0.02 ± 0.03 | 0.00 ± 0.00 | 0.12 ± 0.17 | C[C@@H](NC(=O)c1ccc(N)cc1[18F])C(=O)O [Compound 11, (R)-2-(4-Amino-2-(18)fluorobenzamido)propanoic acid] | 0.94 ± 0.53 | – | – |
| – | – | – | – | – | – | – | – | – | – | – | O=C(O)CNC(=O)c1ccccc1[131I] [Compound I-131, I-131-ortho iodohippuran] | – | 2.17 | – |
| – | – | – | – | – | – | – | – | – | – | – | Tc-99m MercaptoAcetylGlycylGlycylGlycine [Tc-99m MAG-3] | – | 2.84 | 50%-60% |

| Compound | Kidney (% ID) [1, 4] [% ID] | Small Intestine (% ID) [1, 4] [% ID] | Urine (% ID) [1, 4] [% ID] | Kidney (% ID) ([1]; 60 min after injection) | Small Intestine (% ID) ([1]; 60 min after injection) | Plasma clearance [2] [ml/min/100 g] | Clearance [2] [mL/min/100 g] | retention in liver, small intestine and kidney (in words) ([1]; 15 min after injection) | Liver (% ID) [1, 4] [% ID] | Liver (% ID) ([1]; 60 min after injection) | Blood (% ID) [1, 6] [% ID] | Blood (% ID) [1, 5] [% ID] | Plasma clearance [3] [ml/min/100 g] | clearance as percent of the clearance of 131I-OIH [3] |
| --- | --- | --- | --- | --- | --- | --- | --- | --- | --- | --- | --- | --- | --- | --- |
| Nc1ccc(C(=O)NCC(=O)O)c([18F])c1 [Compound 1, 2-(4-amino-2-(18)fluorobenzamido)acetic acid] | 0.51 ± 0.45 | 0.07 ± 0.08 | 87.76 ± 6.03 | 0.00 ± 0.00 | 0.00 ± 0.00 | – | – | – | – | – | – | – | – | – |
| CC(=O)Nc1ccc(C(=O)NCC(=O)O)c([18F])c1 [Compound 2, 2-(4-Acetamido-2-(18)fluorobenzamido)acetic acid] | 1.19 ± 0.53 | 0.09 ± 0.04 | 84.42 ± 3.44 | 0.05 ± 0.09 | 0.02 ± 0.02 | – | – | – | – | – | – | – | – | – |
| Nc1cccc([18F])c1C(=O)NCC(=O)O [Compound 8, 2-(2-Amino-6-(18)fluorobenzamido)acetic acid] | 0.91 ± 0.40 | 0.10 ± 0.09 | 87.51 ± 4.14 | 0.02 ± 0.03 | 0.01 ± 0.01 | – | 1.55 ± 0.10 | – | – | – | – | – | – | – |
